Holding throughout (assay type): functional
What all share (conditions): Rattus norvegicus, 13762, sc; route subcutaneous; read-out: TGI

The subject of test [1] is 13762. As to the kind of experiment: Antitumor activity against rat 13762 cells allografted in Fischer/344 rat assessed as tumor growth inhibition at 10 mg/kg/day, sc for 10 days followed by double the dose every 2 days from day 11 to day 19 relative to vehicle-treated control.
In test [2] the test system is 13762. Put plainly: Antitumor activity against rat 13762 cells allografted in Fischer/344 rat assessed as tumor growth inhibition at 40 mg/kg/day, sc for 10 days followed by double the dose every 2 days from day 11 to day 19 relative to vehicle-treated control.
Test [3] deals with 13762. Put plainly: Antitumor activity against rat 13762 cells allografted in Fischer/344 rat assessed as tumor growth inhibition at 2 mg/kg/day, sc for 10 days followed by double the dose every 2 days from day 11 to day 19 relative to vehicle-treated control.

Regarding `O=NN(CCCl)C(=O)NC1CCCCC1` [LOMUSTINE], in test [1], the inhibition in vivo at 10 mg/kg/day turned out to be 80%.
Consider `CN(N=O)C(=O)N[C@H]1CC[C@H]2[C@@H]3CCc4cc(O)ccc4[C@H]3CC[C@]12C`, for which the inhibition in vivo at 40 mg/kg/day in test [2] came to 15%. The inhibition in vivo at 2 mg/kg/day in test [3] amounted to 4%. In test [1], the inhibition in vivo at 10 mg/kg/day turned out to be 15%.
Consider `CN(N=O)C(=O)NC[C@]1(O)CC[C@H]2[C@@H]3CCc4cc(O)ccc4[C@H]3CC[C@@]21C`, for which the inhibition in vivo at 40 mg/kg/day in test [2] turned out to be 23%. Besides, the inhibition in vivo at 2 mg/kg/day in test [3] stood at 0%. Also, the inhibition in vivo at 10 mg/kg/day in test [1] was found to be 10%.
With `C[C@]12CC[C@@H]3c4ccc(O)cc4CC[C@H]3[C@@H]1CC[C@@H]2NC(=O)N(CCCl)N=O`, the inhibition in vivo at 40 mg/kg/day in test [2] worked out at 100%. In test [3], the inhibition in vivo at 2 mg/kg/day is 0%. The inhibition in vivo at 10 mg/kg/day in test [1] turned out to be 50%.
Consider `C[C@]12CC[C@@H]3c4ccc(O)cc4CC[C@H]3[C@@H]1CC[C@@]2(O)CNC(=O)N(CCCl)N=O`, for which the inhibition in vivo at 40 mg/kg/day in test [2] is 85%. In test [3], the inhibition in vivo at 2 mg/kg/day is 0%. Besides, the inhibition in vivo at 10 mg/kg/day in test [1] came to 35%.

For the origin of these results see ChEMBL document CHEMBL3227976, “Synthesis of steroidal nitrosoureas with antitumor activity” (1979).
